Measurements as given in patent US11773078B2, “Furin inhibitors” (Glaxosmithkline Intellectual Property Development Limited, priority 2018, dated 2023).
Where a name gives a salt, the structure may show the parent alone.

How the values were obtained:
[1] = molecular target: T1, Furin (108-574-Tev-Flag-His) enzyme (Homo sapiens, UniProt P09958); test: Furin enzyme assay; format: biochemical; settings: for IC50: read-out: furin enzyme pIC50 (converted)
T1 construct: Furin (108-574-Tev-Flag-His) enzyme was expressed and purified from CHO cells; TEV cleavage site (C); FLAG (C); His (C); made in house; host or cells: CHO cells
Method in brief: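 CHO-expressed, purified furin construct at 40 pM in 100 mM HEPES pH7.5, 1 mM CaCl2, 0.005% Triton X-100. Eleven-point 1:3 series, 0.00017–10 μM final, incubated 2 h at room temperature and read on Envision. pXC50 from four-parameter fit.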

[2] = molecular target: T2, furin (endogenous protease) in U20S cells (Homo sapiens, UniProt P09958); test: Furin cell-based assay (image-based, Golgi-targeted GFP with BMP10 furin/PCSK cleavage site); settings: 24-hour incubation, read-out: furin golgi cell pXC50 (converted);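 also: Read-out is mean GFP fluorescence of Golgi puncta per cell by high-content imaging, retained when furin inhibited, over an eleven-point 0.00017–10 µM series, four-parameter fit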
T2 construct: the endogenous protease cleaves GFP; endogenous in cells; host or cells: U2OS cells transduced with a BacMam reporter
T2 sequence (P09958 108-794): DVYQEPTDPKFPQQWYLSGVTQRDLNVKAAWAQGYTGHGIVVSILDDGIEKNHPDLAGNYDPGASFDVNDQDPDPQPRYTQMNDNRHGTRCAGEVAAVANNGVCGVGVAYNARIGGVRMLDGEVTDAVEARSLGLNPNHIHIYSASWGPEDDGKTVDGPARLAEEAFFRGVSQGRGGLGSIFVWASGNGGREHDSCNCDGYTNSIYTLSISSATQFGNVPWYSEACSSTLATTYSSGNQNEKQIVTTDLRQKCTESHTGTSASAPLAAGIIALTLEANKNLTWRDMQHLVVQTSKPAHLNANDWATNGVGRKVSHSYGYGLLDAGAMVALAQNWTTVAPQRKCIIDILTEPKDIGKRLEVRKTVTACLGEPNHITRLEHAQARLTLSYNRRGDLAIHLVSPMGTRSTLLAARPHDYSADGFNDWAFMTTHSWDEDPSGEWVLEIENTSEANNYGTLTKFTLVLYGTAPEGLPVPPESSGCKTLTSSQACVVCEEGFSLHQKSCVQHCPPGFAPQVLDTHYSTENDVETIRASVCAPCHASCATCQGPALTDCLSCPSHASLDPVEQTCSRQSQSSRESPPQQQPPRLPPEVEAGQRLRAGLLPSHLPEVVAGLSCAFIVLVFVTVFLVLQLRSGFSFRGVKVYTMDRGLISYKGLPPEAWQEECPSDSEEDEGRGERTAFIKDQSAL

T1 sequence (P09958 108-574): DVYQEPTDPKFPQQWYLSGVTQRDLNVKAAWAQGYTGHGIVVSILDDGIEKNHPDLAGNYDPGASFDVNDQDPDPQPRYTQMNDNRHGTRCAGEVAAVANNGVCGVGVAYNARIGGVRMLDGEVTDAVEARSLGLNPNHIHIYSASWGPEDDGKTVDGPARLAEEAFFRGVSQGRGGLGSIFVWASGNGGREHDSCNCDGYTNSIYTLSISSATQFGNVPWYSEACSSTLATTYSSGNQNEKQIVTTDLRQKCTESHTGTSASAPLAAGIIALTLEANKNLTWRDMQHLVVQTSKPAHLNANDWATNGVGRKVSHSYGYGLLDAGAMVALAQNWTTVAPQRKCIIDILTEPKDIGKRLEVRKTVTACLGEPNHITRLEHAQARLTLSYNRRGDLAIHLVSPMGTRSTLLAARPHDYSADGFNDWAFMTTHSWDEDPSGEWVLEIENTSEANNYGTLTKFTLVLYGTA

Structure (SMILES)	furin enzyme pIC50 [1]	EC50 [2] [nM]	IC50 [1] [nM]
CN1CCCN(c2ccc(Oc3cc(CN4CC[C@@H]5[C@H](CC4)[C@H]5C(=O)O)cc(-c4cc(Cl)cc(Cl)c4)n3)nn2)CC1 [Example 362, (1R,7S,8r)-4-((2-(3,5-dichlorophenyl)-6-((6-(4-methyl-1,4-diazepan-1-yl)pyridazin-3-yl)oxy)pyridin-4-yl)methyl)-4-azabicyclo[5.1.0]octane-8-carboxylic acid]		25.1	0.0316
CCN1C[C@@H]2C[C@H]1CN2c1ccc(Oc2cc(CN3CCC(CC(=O)O)CC3)cc(-c3cc(Cl)cc(Cl)c3)n2)nn1 [Example 366, 2-(1-((2-(3,5-dichlorophenyl)-6-((6-((1S,4S)-5-ethyl-2,5-diazabicyclo[2.2.1]heptan-2-yl)pyridazin-3-yl)oxy)pyridin-4-yl)methyl)piperidin-4-yl)acetic acid]	8.8	31.6	
CC(=O)N[C@H]1[C@@H]2CCN(Cc3cc(Oc4cnc(N5CCN(CCC(=O)O)CC5)nc4)nc(-c4cc(Cl)cc(Cl)c4)c3)CC[C@@H]21 [Example 367]	10.1	2.51	
CC(=O)NCC1CCN(Cc2cc(Oc3cnc(N4CCN(CCC(C)(C)C(=O)O)CC4)nc3)nc(-c3cc(Cl)cc(Cl)c3)c2)CC1 [Example 370, 4-(4-(5-((4-((4-(Acetamidomethyl)piperidin-1-yl)methyl)-6-(3,5-dichlorophenyl)pyridin-2-yl)oxy)pyrimidin-2-yl)piperazin-1-yl)-2,2-dimethylbutanoic acid, 4 hydrochloride]	9.2	6.31	
Cc1c(CN2CCC(CC(=O)O)CC2)cc(-c2cc(Cl)cc(Cl)c2)nc1Oc1ccc(N2CCN(C)CC2)nn1 [Example 371, 2-(1-((6-(3,5-Dichlorophenyl)-3-methyl-2-((6-(4-methylpiperazin-1-yl)pyridazin-3-yl)oxy)pyridin-4-yl)methyl)piperidin-4-yl)acetic acid]	8.9	31.6	
CC(=O)NCC1CCN(Cc2cc(Oc3cnc(N4CCN(C(C)CCS(C)(=O)=O)CC4)nc3)nc(-c3cc(F)cc(Cl)c3)c2)CC1 (stereo not shown) [Example 372, N-((1-((2-(3-Chloro-5-fluorophenyl)-6-((2-(4-(4-(methylsulfonyl)butan-2-yl)piperazin-1-yl)pyrimidin-5-yl)oxy)pyridin-4-yl)methyl)piperidin-4-yl)methyl)acetamide]	8.8	3.98	
CNC(=O)NCC1CCN(Cc2cc(Oc3cnc(N4CCN(C(C)CCS(C)(=O)=O)CC4)nc3)nc(-c3cc(F)cc(Cl)c3)c2)CC1 (stereo not shown) [Example 373, 1-((1-((2-(3-chloro-5-fluorophenyl)-6-((2-(4-(4-(methylsulfonyl)butan-2-yl)piperazin-1-yl)pyrimidin-5-yl)oxy)pyridin-4-yl)methyl)piperidin-4-yl)methyl)-3-methylurea]	8.9	5.01	
CN1CCCN(c2ncc(Oc3cc(CN4CCC(CC(=O)O)CC4)cc(-c4cc(F)cc(Cl)c4)n3)cn2)CC1 [Example 374, 2-(1-((2-(3-chloro-5-fluorophenyl)-6-((2-(4-methyl-1,4-diazepan-1-yl)pyrimidin-5-yl)oxy)pyridin-4-yl)methyl)piperidin-4-yl)acetic acid]	7.9	158	
CC(C)N(c1cnc(N2CCN(C)CC2)nc1)c1cc(CN2CCC(CC(=O)O)CC2)cc(-c2cc(Cl)cc(Cl)c2)n1 [Example 375, 2-(1-((2-(3,5-Dichlorophenyl)-6-(isopropyl(2-(4-methylpiperazin-1-yl)pyrimidin-5-yl)amino)pyridin-4-yl)methyl)piperidin-4-yl)acetic acid]	7.9	251	
CN1CCN(c2ncc(Oc3cc(-c4cc(Cl)cc(Cl)c4)cc(CN4CCC(CC(=O)O)CC4)c3F)cn2)CC1 [Example 376, 2-(1-((3′,5′-dichloro-4-fluoro-5-((2-(4-methylpiperazin-1-yl)pyrimidin-5-yl)oxy)-[1,1′-biphenyl]-3-yl)methyl)piperidin-4-yl)acetic acid]	8.7	25.1	
CN1CCN(c2ccc(Oc3nc(-c4cc(Cl)cc(Cl)c4)cc(CN4CCC(CC(=O)O)CC4)c3F)cn2)CC1 [Example 377, 2-(1-((6-(3,5-Dichlorophenyl)-3-fluoro-2-((6-(4-methylpiperazin-1-yl)pyridin-3-yl)oxy)pyridin-4-yl)methyl)piperidin-4-yl)acetic acid, 4 hydrochloride]	8.6	25.1	
CN1C2CCC1CN(c1ncc(Oc3nc(-c4cc(Cl)cc(Cl)c4)cc(CN4CCC(CC(=O)O)CC4)c3F)cn1)C2 [Example 378, 2-(1-((6-(3,5-dichlorophenyl)-3-fluoro-2-((2-(8-methyl-3,8-diazabicyclo[3.2.1]octan-3-yl)pyrimidin-5-yl)oxy)pyridin-4-yl)methyl)piperidin-4-yl)acetic acid]		6.31	2
CN1CCN(c2ncc(Oc3nc(-c4cc(Cl)cc(Cl)c4)cc(CN4CCC(CC(=O)O)CC4)c3F)cn2)CC1 [Example 379, 2-(1-((6-(3,5-dichlorophenyl)-3-fluoro-2-((2-(4-methylpiperazin-1-yl)pyrimidin-5-yl)oxy)pyridin-4-yl)methyl)piperidin-4-yl)acetic acid]	8.7	20	
Cc1nc(N2CCN(C)CC2)ncc1Oc1nc(-c2cc(Cl)cc(Cl)c2)cc(CN2CCC(CC(=O)O)CC2)c1F [Example 380, 2-(1-((6-(3,5-dichlorophenyl)-3-fluoro-2-((4-methyl-2-(4-methylpiperazin-1-yl)pyrimidin-5-yl)oxy)pyridin-4-yl)methyl)piperidin-4-yl)acetic acid]	9.6	63.1	
CC(=O)NCC1CCN(Cc2cc(-c3cc(Cl)cc(Cl)c3)nc(Oc3cnc(N4CCN(CCC(C)C(=O)O)CC4)nc3)c2F)CC1 (stereo not shown) [Example 381, 4-(4-(5-((4-((4-(acetamidomethyl)piperidin-1-yl)methyl)-6-(3,5-dichlorophenyl)-3-fluoropyridin-2-yl)oxy)pyrimidin-2-yl)piperazin-1-yl)-2-methylbutanoic acid]	8.9	10	
O=C(O)CC1CCN(Cc2cc(-c3cc(Cl)cc(Cl)c3)nc(Oc3cnc(N4CC5CCC(C4)N5)nc3)c2F)CC1 [Example 382, 2-(1-((2-((2-(3,8-diazabicyclo[3.2.1]octan-3-yl)pyrimidin-5-yl)oxy)-6-(3,5-dichlorophenyl)-3-fluoropyridin-4-yl)methyl)piperidin-4-yl)acetic acid]	8.6	6.31	

The next lines start with the values.

furin enzyme pIC50 [1]	EC50 [2] [nM]	IC50 [1] [nM]	Structure (SMILES)
9.1	20		CCN1CCN(c2ccc(Oc3cc(CN4CCC(CC(=O)O)CC4)cc(-c4cc(Cl)cc(Cl)c4)n3)nn2)CC1 [Example 358, 2-(1-((2-(3,5-dichlorophenyl)-6-((6-(4-ethylpiperazin-1-yl)pyridazin-3-yl)oxy)pyridin-4-yl)methyl)piperidin-4-yl)acetic acid]
9	63.1		CN1CCN(c2ccc(Oc3cc(CN4CCC(CC(=O)O)CC4)cc(-c4cc(Cl)cc(Cl)c4)n3)nn2)CC1 [Example 359, 2-(1-((2-(3,5-dichlorophenyl)-6-((6-(4-methylpiperazin-1-yl)pyridazin-3-yl)oxy)pyridin-4-yl)methyl)piperidin-4-yl)acetic acid]
9	12.6		CN1CCN(c2ccc(Oc3cc(CN4CCC(CCO)CC4)cc(-c4cc(Cl)cc(Cl)c4)n3)nn2)CC1 [Example 360, 2-(1-((2-(3,5-dichlorophenyl)-6-((6-(4-methylpiperazin-1-yl)pyridazin-3-yl)oxy)pyridin-4-yl)methyl)piperidin-4-yl)ethanol]
9	50.1		CN1CCN(c2ccc(Oc3cc(CN4CC[C@@H]5[C@H](CC4)[C@H]5C(=O)O)cc(-c4cc(Cl)cc(Cl)c4)n3)nn2)CC1 [Example 361, (1R,7S,8r)-4-((2-(3,5-dichlorophenyl)-6-((6-(4-methylpiperazin-1-yl)pyridazin-3-yl)oxy)pyridin-4-yl)methyl)-4-azabicyclo[5.1.0]octane-8-carboxylic acid]
9.7	631		CC(=O)NCC1CCN(Cc2cc(Oc3ccc(N4CCN(CC(C)C(=O)O)CC4)nn3)nc(-c3cc(Cl)cc(Cl)c3)c2)CC1 (stereo not shown) [Example 363, 3-(4-(6-((4-((4-(acetamidomethyl)piperidin-1-yl)methyl)-6-(3,5-dichlorophenyl)pyridin-2-yl)oxy)pyridazin-3-yl)piperazin-1-yl)-2-methylpropanoic acid]
9.9	126		C[C@@H](CC1CCN(Cc2cc(Oc3ccc(N4CCN(C)CC4)nn3)nc(-c3cc(Cl)cc(Cl)c3)c2)CC1)C(=O)O [Example 365, (S)-3-(1-((2-(3,5-dichlorophenyl)-6-((6-(4-methylpiperazin-1-yl)pyridazin-3-yl)oxy)pyridin-4-yl)methyl)piperidin-4-yl)-2-methylpropanoic acid]
8.3	3.98		COC(=O)C(C)CCN1CCN(c2ncc(Oc3cc(CN4CCC(CNC(C)=O)CC4)cc(-c4cc(Cl)cc(Cl)c4)n3)cn2)CC1 (stereo not shown) [Example 368, methyl 4-(4-(5-((4-((4-(acetamidomethyl)piperidin-1-yl)methyl)-6-(3,5-dichlorophenyl)pyridin-2-yl)oxy)pyrimidin-2-yl)piperazin-1-yl)-2-methylbutanoate]
